Laboratory results published in the NIST ThermoML archive (doi:10.1016/j.tca.2012.02.002).

Assay: molar heat capacity at constant pressure
Conditions: 101.33 kPa, Crystal

O=P([O-])([O-])[O-].[Er+3] [erbium phosphate]
Conditions | molar heat capacity at constant pressure [J/K/mol]
48.02 K, Vacuum adiabatic calorimetry | 18.68
49.64 K, Vacuum adiabatic calorimetry | 19.56
50 K, Drop calorimetry | 19.7
51.27 K, Vacuum adiabatic calorimetry | 20.45
52.9 K, Vacuum adiabatic calorimetry | 21.35
54.54 K, Vacuum adiabatic calorimetry | 22.23
55 K, Drop calorimetry | 22.45
56.17 K, Vacuum adiabatic calorimetry | 23.13
57.81 K, Vacuum adiabatic calorimetry | 24.03
59.46 K, Vacuum adiabatic calorimetry | 24.96
60 K, Drop calorimetry | 25.28
61.11 K, Vacuum adiabatic calorimetry | 25.9
62.76 K, Vacuum adiabatic calorimetry | 26.86
64.41 K, Vacuum adiabatic calorimetry | 27.81
65 K, Drop calorimetry | 28.13
66.06 K, Vacuum adiabatic calorimetry | 28.75
67.72 K, Vacuum adiabatic calorimetry | 29.67
69.38 K, Vacuum adiabatic calorimetry | 30.58
70 K, Drop calorimetry | 30.96
71.24 K, Vacuum adiabatic calorimetry | 31.56
73.31 K, Vacuum adiabatic calorimetry | 32.73
75 K, Drop calorimetry | 33.73
75.38 K, Vacuum adiabatic calorimetry | 33.9
77.44 K, Vacuum adiabatic calorimetry | 35.09
78.64 K, Vacuum adiabatic calorimetry | 35.5
79.51 K, Vacuum adiabatic calorimetry | 36.27
80 K, Drop calorimetry | 36.43
81 K, Vacuum adiabatic calorimetry | 37.03
81.57 K, Vacuum adiabatic calorimetry | 37.33
83.05 K, Vacuum adiabatic calorimetry | 38
83.64 K, Vacuum adiabatic calorimetry | 38.24
85 K, Drop calorimetry | 39.03
85.11 K, Vacuum adiabatic calorimetry | 38.94
85.72 K, Vacuum adiabatic calorimetry | 39.22
87.17 K, Vacuum adiabatic calorimetry | 40.21
87.79 K, Vacuum adiabatic calorimetry | 40.58
89.22 K, Vacuum adiabatic calorimetry | 41.36
89.86 K, Vacuum adiabatic calorimetry | 41.58
90 K, Drop calorimetry | 41.53
91.28 K, Vacuum adiabatic calorimetry | 42.3
91.94 K, Vacuum adiabatic calorimetry | 42.51
93.33 K, Vacuum adiabatic calorimetry | 43.21
94.02 K, Vacuum adiabatic calorimetry | 43.42
95 K, Drop calorimetry | 43.93
95.39 K, Vacuum adiabatic calorimetry | 44.16
96.11 K, Vacuum adiabatic calorimetry | 44.4
97.45 K, Vacuum adiabatic calorimetry | 45.11
99.5 K, Vacuum adiabatic calorimetry | 46.06
100 K, Drop calorimetry | 46.24
102.17 K, Vacuum adiabatic calorimetry | 47.11
105.46 K, Vacuum adiabatic calorimetry | 48.46
108.74 K, Vacuum adiabatic calorimetry | 50.01
110 K, Drop calorimetry | 50.59
112.02 K, Vacuum adiabatic calorimetry | 51.4
115.31 K, Vacuum adiabatic calorimetry | 52.75
118.6 K, Vacuum adiabatic calorimetry | 54.1
120 K, Drop calorimetry | 54.66
121.89 K, Vacuum adiabatic calorimetry | 55.38
125.18 K, Vacuum adiabatic calorimetry | 56.65
128.48 K, Vacuum adiabatic calorimetry | 57.9
130 K, Drop calorimetry | 58.5
131.77 K, Vacuum adiabatic calorimetry | 59.15
135.06 K, Vacuum adiabatic calorimetry | 60.36
138.35 K, Vacuum adiabatic calorimetry | 61.56
140 K, Drop calorimetry | 62.15
141.64 K, Vacuum adiabatic calorimetry | 62.75
144.92 K, Vacuum adiabatic calorimetry | 63.93
148.21 K, Vacuum adiabatic calorimetry | 65.06
150 K, Drop calorimetry | 65.63
151.5 K, Vacuum adiabatic calorimetry | 66.19
154.79 K, Vacuum adiabatic calorimetry | 67.31
158.07 K, Vacuum adiabatic calorimetry | 68.34
160 K, Drop calorimetry | 68.95
161.36 K, Vacuum adiabatic calorimetry | 69.45
164.64 K, Vacuum adiabatic calorimetry | 70.45
167.92 K, Vacuum adiabatic calorimetry | 71.48
170 K, Drop calorimetry | 72.09
171.18 K, Vacuum adiabatic calorimetry | 72.5
174.46 K, Vacuum adiabatic calorimetry | 73.47
177.73 K, Vacuum adiabatic calorimetry | 74.42
180 K, Drop calorimetry | 75.06
181 K, Vacuum adiabatic calorimetry | 75.35
184.26 K, Vacuum adiabatic calorimetry | 76.23
187.53 K, Vacuum adiabatic calorimetry | 77.14
190 K, Drop calorimetry | 77.87
190.79 K, Vacuum adiabatic calorimetry | 77.99
194.05 K, Vacuum adiabatic calorimetry | 78.87
197.31 K, Vacuum adiabatic calorimetry | 79.82
200 K, Drop calorimetry | 80.51
200.56 K, Vacuum adiabatic calorimetry | 80.61
204.21 K, Vacuum adiabatic calorimetry | 81.51
208.26 K, Vacuum adiabatic calorimetry | 82.53
210 K, Drop calorimetry | 83.03
212.31 K, Vacuum adiabatic calorimetry | 83.53
216.35 K, Vacuum adiabatic calorimetry | 84.52
220 K, Drop calorimetry | 85.43
220.38 K, Vacuum adiabatic calorimetry | 85.53
228.3 K, Vacuum adiabatic calorimetry | 87.52
230 K, Drop calorimetry | 87.73
232.31 K, Vacuum adiabatic calorimetry | 88.39
236.31 K, Vacuum adiabatic calorimetry | 89.17
240 K, Drop calorimetry | 89.95
240.3 K, Vacuum adiabatic calorimetry | 90.08
244.27 K, Vacuum adiabatic calorimetry | 90.89
248.24 K, Vacuum adiabatic calorimetry | 91.71
250 K, Drop calorimetry | 92.08
252.19 K, Vacuum adiabatic calorimetry | 92.54
256.13 K, Vacuum adiabatic calorimetry | 93.34
260 K, Drop calorimetry | 94.13
260.05 K, Vacuum adiabatic calorimetry | 94.13
263.96 K, Vacuum adiabatic calorimetry | 94.97
267.82 K, Vacuum adiabatic calorimetry | 95.68
270 K, Drop calorimetry | 96.08
271.7 K, Vacuum adiabatic calorimetry | 96.34
275.56 K, Vacuum adiabatic calorimetry | 97.1
279.36 K, Vacuum adiabatic calorimetry | 97.78
280 K, Drop calorimetry | 97.93
283.13 K, Vacuum adiabatic calorimetry | 98.4
286.87 K, Vacuum adiabatic calorimetry | 99.05
290 K, Drop calorimetry | 99.69
290.33 K, Vacuum adiabatic calorimetry | 99.68
294.03 K, Vacuum adiabatic calorimetry | 100.3
297.69 K, Vacuum adiabatic calorimetry | 101
300 K, Drop calorimetry | 101.4
301.33 K, Vacuum adiabatic calorimetry | 101.7
305.3 K, Vacuum adiabatic calorimetry | 102.4
310 K, Drop calorimetry | 103
311.36 K, Vacuum adiabatic calorimetry | 103.5
318.34 K, Vacuum adiabatic calorimetry | 104.6
320 K, Drop calorimetry | 104.8
325.26 K, Vacuum adiabatic calorimetry | 105.6
330 K, Drop calorimetry | 106.5
332.11 K, Vacuum adiabatic calorimetry | 106.5
338.88 K, Vacuum adiabatic calorimetry | 107.5
340 K, Drop calorimetry | 108.2
345.58 K, Vacuum adiabatic calorimetry | 108.5
350 K, Drop calorimetry | 109.8
400 K, Drop calorimetry | 116.9
450 K, Drop calorimetry | 122.8
500 K, Drop calorimetry | 127.7
550 K, Drop calorimetry | 131.8
600 K, Drop calorimetry | 135.4
650 K, Drop calorimetry | 138.4
700 K, Drop calorimetry | 141
750 K, Drop calorimetry | 143.3
800 K, Drop calorimetry | 145.3
850 K, Drop calorimetry | 147.1
900 K, Drop calorimetry | 148.8
950 K, Drop calorimetry | 150.2
1000 K, Drop calorimetry | 151.6
1050 K, Drop calorimetry | 152.8
1100 K, Drop calorimetry | 154
1150 K, Drop calorimetry | 155.1
1200 K, Drop calorimetry | 156.1
1250 K, Drop calorimetry | 157.1
1300 K, Drop calorimetry | 158.1
1350 K, Drop calorimetry | 158.9
1400 K, Drop calorimetry | 159.8
1450 K, Drop calorimetry | 160.6
1500 K, Drop calorimetry | 161.4
1550 K, Drop calorimetry | 162.2
1600 K, Drop calorimetry | 162.9
